Assay results taken from patent publication US20220175818A1, “Inhibition of Monoamine Oxidase Subtype A (MAOA) Mitigates Cardiovascular Calcification” (The Brigham and Women's Hospital, Inc., priority 2019, published 2022).

Tested on: VICs
Assay: Alizarin red calcification assay of VICs grown in osteogenic media with MAOA inhibitors
Format: cell-based, human
Settings: VICs grown in OM, 21 days, inhibitor 10 μM, PBS control, n=3, FIG. 7E
Method: Representative images, n=3 donors.
Osteogenic, chondrogenic, and adipogenic differentiation assays were conducted for samples of protein, RNA, and media collected at 0, 1, 2, and 3 weeks after changing media from growth media to specialized media. Alizarin Red. alizarin red (AR) 2% (Thermo Fisher Scientific), Alcian blue (AB) 1%, and oil red O (ORO) (Abcam) were used for osteogenic, chondrogenic, and adipogenic assays respectively. Cells plated in 48 or 96 well plates were washed with PBS and fixed for 15 minutes at room temperature with 10% formalin for AR and AB and 4% PFA for ORO. After washing with Milli-Q water, stains were added. […] The incubation times were 20 minutes (AR), 1 hour (AB), and 15 minutes in room temperature (ORO). Washes with Milli-Q water followed for the AR (3×) and AB (4×) stains. […] Pictures were taken using an iPhone7 (Apple) and the amount of dye released was quantified by spectrophotometry at 550 nm.

SMILES | calcification (Alizarin red staining)
O=C(NCCN1CCOCC1)c1ccc(Cl)cc1 [moclobemide, Moclobemide] | reduction of calcification
Cc1ccc2c(c1)c1c3n2CCNC3CCC1 (centres unmarked) [pirindole] | reduction of calcification
